From patent US9434725B2, “5-azaindazole compounds and methods of use” (priority 2012, dated 2016)

Legend:
PIM3 = PIM3 (Homo sapiens (Human), UniProt Q86V86); assay: Pim kinase binding activity, Caliper LC3000 microfluidic peptide phosphorylation assay, PIM3; format: biochemical; conditions: 10 μM ATP, 90 min, room temperature; read-out: PIM3 LC3K (KI)
Protocol: (§1) A fluorescent-labeled Pim-specific peptide substrate, was custom synthesized by American Peptide Company (Sunnyvale, Calif.). Reaction Buffer contained 10 mM HEPES, pH 7.2, 10 mM MgCl2, 0.01% Tween 20, 2 mM DTT. Termination Buffer contained 190 mM HEPES, pH 7.2, 0.015% Brij-35, 0.2% Coating Reagent 3 (Caliper Life Sciences, Hopkinton, Mass.), 20 mM EDTA. Separation Buffer contained 100 mM HEPES, pH 7.2, 0.015% Brij-35, 0.1% Coating Reagent 3, 1:200 Coating Reagent 8 (Caliper Life Sciences, Hopkinton, Mass.), 10 mM EDTA and 5% DMSO.
(§2) PIM reactions were carried out in a final volume of 10 μL per well in a 384-well plate. […] After 90 minutes of incubation at room temperature, the phosphorylation reaction was stopped by the addition of 10 μL Termination Buffer. The product and substrate in each independent reaction were separated on a 12-sipper microfluidic chip (Caliper Life Sciences, Hopkinton, Mass.) run on a Caliper LC3000® (Caliper Life Sciences, Hopkinton, Mass.). The separation of product and substrate was optimized by choosing voltages and pressure using Caliper's Optimizer software (Hopkinton, Mass.). […] Substrate conversion was calculated from the electropherogram using HTS Well Analyzer software (Caliper Life Sciences, Hopkinton, Mass.). Ki values for the test compound were calculated.

PIM2 = PIM2 (Homo sapiens (Human), UniProt Q9P1W9); assay: Pim kinase binding activity, Caliper LC3000 microfluidic peptide phosphorylation assay, PIM2; format: biochemical; conditions: 10 μM ATP, 90 min, room temperature; read-out: PIM2 LC3K (KI)
Sequence of PIM2 (Q9P1W9 whole entry): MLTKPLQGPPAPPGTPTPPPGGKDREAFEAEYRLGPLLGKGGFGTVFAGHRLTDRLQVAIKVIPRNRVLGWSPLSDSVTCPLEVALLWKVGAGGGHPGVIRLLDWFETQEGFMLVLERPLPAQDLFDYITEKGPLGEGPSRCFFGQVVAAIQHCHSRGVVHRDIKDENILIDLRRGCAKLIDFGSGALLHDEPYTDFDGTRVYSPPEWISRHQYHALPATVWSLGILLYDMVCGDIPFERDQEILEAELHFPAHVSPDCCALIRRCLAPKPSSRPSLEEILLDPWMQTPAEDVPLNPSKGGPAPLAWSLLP
Protocol: as §1, §2

SMILES | Ki (PIM3) | Ki (PIM2)
CCn1cc(-c2cc3c(cn2)cnn3-c2cccc(N3CCNCC3)n2)cn1 [Compound 101, 6-(1-ethylpyrazol-4-yl)-1-(6-piperazin-1-yl-2-pyridyl)pyrazolo[4,3-c]pyridine] | 0.676 nM | 14.6 nM
CC(C)c1cncc(-c2cc3c(cn2)cnn3-c2cccc(N3CCNCC3)n2)c1 [Compound 105, 6-(5-isopropylpyridin-3-yl)-1-(6-(piperazin-1-yl)pyridin-2-yl)-1H-pyrazolo[4,3-c]pyridine] | 0.183 nM | 7.14 nM
CCc1cncc(-c2cc3c(cn2)cnn3-c2cccc(N3CCNC[C@H](O)C3)n2)c1 (single isomer, unassigned) [Compound 121] | 0.301 nM | 10.5 nM
c1ccc(-n2ncc3cnc(-c4cncc(NC5CNC5)n4)cc32)nc1 [Compound 308, N-(azetidin-3-yl)-6-(1-(pyridin-2-yl)-1H-pyrazolo[4,3-c]pyridin-6-yl)pyrazin-2-amine] | 0.4 nM | 4.31 nM
Cc1cncc(-c2cc3c(cn2)cnn3-c2ccc(C(F)F)c(N3CCC[C@H](N)C3)n2)n1 [Compound 227, (S)-1-(3-(difluoromethyl)-6-(6-(6-methylpyrazin-2-yl)-1H-pyrazolo[4,3-c]pyridin-1-yl)pyridin-2-yl)piperidin-3-amine] | 0.019 nM | 
Cc1cc(-c2cc3c(cn2)cnn3-c2cccc(N3CCCNCC3)n2)sn1 [Compound 120, 5-[1-[6-(1 4-diazepan-1-yl)-2-pyridyl]pyrazolo[4,3-c]pyridin-6-yl]-3-methyl-isothiazole] | 0.168 nM | 4.66 nM
Cc1cncc(-c2cc3c(cn2)cnn3-c2cccc(N3CCCC(N)C3C)n2)n1 (single isomer, unassigned) [Compound 203, 2-methyl-1-[6-[6-(6-methylpyrazin-2-yl)pyrazolo[4,3-c]pyridin-1-yl]-2-pyridyl]piperidin-3-amine] | 0.331 nM | 4.83 nM
Cn1cc(-c2cc3c(cn2)cnn3-c2cccc(N3CCCNCC3)n2)cn1 [Compound 224, 1-(6-(1,4-Diazepan-1-yl)pyridin-2-yl)-6-(1-methyl-1H-pyrazol-4-yl)-1H-pyrazolo[4,3-c]pyridine] | 0.097 nM | 5.01 nM
Cc1cncc(-c2cc3c(cn2)cnn3-c2cccc(N(C)C)n2)n1 [Compound 296, N,N-dimethyl-6-(6-(6-methylpyrazin-2-yl)-1H-pyrazolo[4,3-c]pyridin-1-yl)pyridin-2-amine] | 0.562 nM | 
Cc1cncc(-c2cc3c(cn2)cnn3-c2cccc(C3CCNCC3)n2)n1 [Compound 166, 6-(6-methylpyrazin-2-yl)-1-[6-(4-piperidyl)-2-pyridyl]pyrazolo[4,3-c]pyridine] | 0.447 nM | 4.62 nM
Cc1cncc(-c2cc3c(cn2)cnn3-c2cccc(N3CCC[C@H](N)C3=O)n2)n1 [Compound 225, (3S)-3-amino-1-[6-[6-(6-methylpyrazin-2-yl)pyrazolo[4,3-c]pyridin-1-yl]-2-pyridyl]piperidin-2-one] | 0.267 nM | 4.29 nM
Cc1cncc(-c2cc3c(cn2)cnn3-c2cccc(C(=O)N3CCC[C@H](N)C3)n2)n1 [Compound 302, (S)-(3-aminopiperidin-1-yl)(6-(6-(6-methylpyrazin-2-yl)-1H-pyrazolo[4,3-c]pyridin-1-yl)pyridin-2-yl)methanone] | 20.1 nM | 183 nM
FC(F)(F)Cn1cc(-c2cc3c(cn2)cnn3-c2ccnc(N3CCCNCC3)n2)cn1 [Compound 179, 1-(2-(1,4-Diazepan-1-yl)pyrimidin-4-yl)-6-(1-(2,2,2-trifluoroethyl)-1H-pyrazol-4-yl)-1H-pyrazolo-[4,3-c]pyridine] | 1.76 nM | 
Cc1cncc(-c2cc3c(cn2)cnn3-c2ccc(=O)n([C@H]3CCCNC3)n2)n1 [Compound 289, (S)-6-(6-(6-methylpyrazin-2-yl)-1H-pyrazolo[4,3-c]pyridin-1-yl)-2-(piperidin-3-yl)pyridazin-3(2H)-one] |  | 1000 nM
CCc1cncc(-c2cc3c(cn2)cnn3-c2cccc(N3CCNCC(O)C3)n2)c1 (centres unmarked) [Compound 106, 1-(6-(6-(5-ethylpyridin-3-yl)-1H-pyrazolo[4,3-c]pyridin-1-yl)pyridin-2-yl)-1,4-diazepan-6-ol] |  | 7.26 nM

Continued, values first:

Ki (PIM3) | Ki (PIM2) | SMILES
0.235 nM | 3.43 nM | CNc1cccc(-n2ncc3cnc(-c4cncc(C)n4)cc32)n1 [Compound 297, N-methyl-6-(6-(6-methylpyrazin-2-yl)-1H-pyrazolo[4,3-c]pyridin-1-yl)pyridin-2-amine]
0.011 nM | 0.314 nM | Cc1cncc(-c2cc3c(cn2)cnn3-c2ccc(F)c(N3CCC[C@H](N)C3)n2)n1 [Compound 215, (S)-1-(3-fluoro-6-(6-(6-methylpyrazin-2-yl)-1H-pyrazolo[4,3-c]pyridin-1-yl)pyridin-2-yl)piperidin-3-amine]
 | 1.06 nM | Cc1cncc(-c2cc3c(cn2)cnn3-c2cccc(N3CCCCC(N)C3)n2)n1 (centres unmarked) [Compound 187, 1-[6-[6-(6-methylpyrazin-2-yl)pyrazolo[4,3-c]pyridin-1-yl]-2-pyridyl]azepan-3-amine]
0.076 nM | 2.42 nM | Cc1cncc(-c2cc3c(cn2)cnn3-c2cccc(N3CCNC(C)CC3)n2)n1 (centres unmarked) [Compound 184, 1-[6-(5-methyl-1 4-diazepan-1-yl)-2-pyridyl]-6-(6-methylpyrazin-2-yl)pyrazolo[4,3-c]pyridine]
0.035 nM | 0.187 nM | CCc1cncc(-c2cc3c(cn2)cnn3-c2ccc(C3CC3)c(N3CCC[C@H](N)C3)n2)c1 [Compound 139, (S)-1-(3-cyclopropyl-6-(6-(5-ethylpyridin-3-yl)-1H-pyrazolo[4,3-c]pyridin-1-yl)pyridin-2-yl)piperidin-3-amine]
0.047 nM | 0.317 nM | Cc1cncc(-c2cc3c(cn2)cnn3-c2ccc(Cl)c(N3CCC[C@H](N)C3)n2)n1 [Compound 176, (S)-1-(3-chloro-6-(6-(6-methylpyrazin-2-yl)-1H-pyrazolo[4,3-c]pyridin-1-yl)pyridin-2-yl)piperidin-3-amine]
0.025 nM | 0.477 nM | Cc1cncc(-c2cc3c(cn2)cnn3-c2cccc(N3CCCC(N)C3C)n2)n1 (single isomer, unassigned) [Compound 204, 2-methyl-1-[6-[6-(6-methylpyrazin-2-yl)pyrazolo[4,3-c]pyridin-1-yl]-2-pyridyl]piperidin-3-amine]
 | 0.864 nM | Cc1cncc(-c2cc3c(cn2)cnn3-c2cccc(N3CCNC[C@@H]3C)n2)n1 [Compound 196, 1-[6-[(2S)-2-methylpiperazin-1-yl]-2-pyridyl]-6-(6-methylpyrazin-2-yl)pyrazolo[4,3-c]pyridine]
0.014 nM | 0.748 nM | Cc1nc(-c2cc3c(cn2)cnn3-c2cccc(N3CCCNCC3)n2)cnc1N [Compound 208, 5-(1-(6-(1,4-diazepan-1-yl)pyridin-2-yl)-1H-pyrazolo[4,3-c]pyridin-6-yl)-3-methylpyrazin-2-amine]
 | 4.27 nM | CCn1cc(-c2cc3c(cn2)cnn3-c2cccc(N3CCCNCC3)n2)cn1 [Compound 125, 1-(6-(1,4-diazepan-1-yl)pyridin-2-yl)-6-(1-ethyl-1H-pyrazol-4-yl)-1H-pyrazolo[4,3-c]pyridine]
0.057 nM | 1.03 nM | Cc1cncc(-c2cc3c(cn2)cnn3-c2cccc(N3CCCC(N)C3C)n2)n1 (centres unmarked) [Compound 195, 2-methyl-1-[6-[6-(6-methylpyrazin-2-yl)pyrazolo[4,3-c]pyridin-1-yl]-2-pyridyl]piperidin-3-amine]
0.033 nM | 0.659 nM | Cc1cncc(-c2cc3c(cn2)cnn3-c2cccc(N3CCNC[C@H]3C)n2)n1 [Compound 191, 1-[6-[(2R)-2-methylpiperazin-1-yl]-2-pyridyl]-6-(6-methylpyrazin-2-yl)pyrazolo[4,3-c]pyridine]
0.065 nM | 2.76 nM | CC(C)c1cncc(-c2cc3c(cn2)cnn3-c2cccc(N3CCCNCC3)n2)c1 [Compound 103, 1-(6-(1,4-diazepan-1-yl)pyridin-2-yl)-6-(5-isopropylpyridin-3-yl)-1H-pyrazolo[4,3-c]pyridine]
0.049 nM | 1.93 nM | CC(C)c1cncc(-c2cc3c(cn2)cnn3-c2cccc(N3CCC[C@H](N)C3)n2)c1 [Compound 108, (3S)-1-[6-[6-(5-isopropyl-3-pyridyl)pyrazolo[4,3-c]pyridin-1-yl]-2-pyridyl]piperidin-3-amine]
0.814 nM | 2.26 nM | FC(F)Cn1cc(-c2cc3c(cn2)cnn3-c2cccc(N3CCCNCC3)n2)cn1 [Compound 162, 1-(6-(1,4-Diazepan-1-yl)pyridin-2-yl)-6-(1-(2,2-difluoroethyl)-1H-pyrazol-4-yl)-1H-pyrazolo[4,3-c]pyridine]
0.014 nM | 0.37 nM | CCc1cncc(-c2cc3c(cn2)cnn3-c2cccc(N3CCC[C@H](N)C3)n2)n1 [Compound 156, (3S)-1-[6-[6-(6-ethylpyrazin-2-yl)pyrazolo[4,3-c]pyridin-1-yl]-2-pyridyl]piperidin-3-amine]
0.086 nM | 1.6 nM | c1cc(N2CCCNCC2)nc(-n2ncc3cnc(-c4cn[nH]c4)cc32)c1 [Compound 180, 1-(6-(1,4-Diazepan-1-yl)pyridin-2-yl)-6-(1H-pyrazol-4-yl)-1H-pyrazolo[4,3-c]pyridine]
